Laboratory results reported in patent US20210161855A1, “5-LIPOXYGENASE ANTAGONISTS” (INSTITUTO DE MEDICINA MOLECULAR JOÃO LOBO ANTUNES, priority 2017, published 2021).

What was measured:
EP4 = EP4 (Homo sapiens, UniProt P35408); experiment: Prostanoid EP4 receptor activation, functional assay; assay type: cell-based; conditions: 150 μM
HL-60 [1] = experiment: Cell viability, AML model HL-60 (FIG. 9a); assay type: cell-based; conditions: Homo sapiens, n=3
HL-60 [2] = conditions: cited from earlier work
purified human 5-LO = target: T1, purified human 5-LO (Homo sapiens, UniProt P09917); experiment: Intrinsic tryptophan fluorescence; assay type: binding; conditions: 1 mM dithiothreitol, increasing concentrations
T1 construct: purchased Abcam ab114310
T1 sequence (P09917 1-674): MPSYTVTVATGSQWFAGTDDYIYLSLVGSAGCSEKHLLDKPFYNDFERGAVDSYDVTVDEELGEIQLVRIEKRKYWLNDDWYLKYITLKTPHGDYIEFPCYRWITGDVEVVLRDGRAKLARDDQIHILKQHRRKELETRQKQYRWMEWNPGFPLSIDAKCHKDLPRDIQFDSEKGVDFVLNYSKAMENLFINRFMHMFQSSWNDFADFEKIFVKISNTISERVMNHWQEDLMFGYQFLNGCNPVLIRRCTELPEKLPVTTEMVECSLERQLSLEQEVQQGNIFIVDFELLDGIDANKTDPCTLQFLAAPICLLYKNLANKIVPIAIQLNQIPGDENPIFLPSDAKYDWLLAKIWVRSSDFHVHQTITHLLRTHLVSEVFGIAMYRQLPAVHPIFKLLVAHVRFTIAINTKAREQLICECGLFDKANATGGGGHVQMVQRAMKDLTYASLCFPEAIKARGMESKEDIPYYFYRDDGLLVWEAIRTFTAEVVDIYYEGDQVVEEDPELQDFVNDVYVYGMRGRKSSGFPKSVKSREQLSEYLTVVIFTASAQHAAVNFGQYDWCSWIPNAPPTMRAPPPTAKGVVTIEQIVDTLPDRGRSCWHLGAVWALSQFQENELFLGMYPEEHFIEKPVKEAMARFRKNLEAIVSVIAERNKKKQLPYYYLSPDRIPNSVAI
Protocol: 5-Lipoxygenase (Cat No. ab114310, Abcam) was concentrated to 0.5 μM in buffer (50 mM Tris-HCl, pH 8.0, 5 mM CaCl2). […] The final DMSO concentration was kept under 0.1%. Fluorescent measurements were performed using a 1 cm pathlength quartz cuvette. Spectra were collected in an Edinburgh Instruments FLS920 Series Fluorescence Spectrophotometer at 25° C. with fluorescence excitation and scanning emission set to 295 nm and 310 to 450 nm, respectively. All assays were carried out in triplicate.

EP4, sequence (P35408 whole entry): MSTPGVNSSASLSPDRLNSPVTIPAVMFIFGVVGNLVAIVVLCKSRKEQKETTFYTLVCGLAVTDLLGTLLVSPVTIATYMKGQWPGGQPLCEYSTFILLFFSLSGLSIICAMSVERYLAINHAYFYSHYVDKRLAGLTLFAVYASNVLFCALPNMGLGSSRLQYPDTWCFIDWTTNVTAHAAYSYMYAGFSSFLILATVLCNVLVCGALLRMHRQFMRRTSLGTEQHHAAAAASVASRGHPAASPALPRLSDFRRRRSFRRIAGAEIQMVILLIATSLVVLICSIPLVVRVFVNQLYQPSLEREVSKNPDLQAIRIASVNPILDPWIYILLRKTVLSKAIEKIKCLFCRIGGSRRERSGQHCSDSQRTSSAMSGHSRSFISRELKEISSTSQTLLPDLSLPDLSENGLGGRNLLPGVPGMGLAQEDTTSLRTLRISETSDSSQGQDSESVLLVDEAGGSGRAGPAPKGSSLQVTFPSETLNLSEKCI

**Q.** What does the source list for `CC1(C)CCC2=C(O1)c1ccccc1C(=O)C2=O` [Compound 1, 3,4-dihydro-2,2-dimethyl-2H-naphtho[1,2-b]pyran-5,6-dione]?
**A.** EP4 activation (EP4): 53%; IC50 (HL-60 [1]): 2700 nM; pGI50 z-score (HL-60 [2]; NCI-60, z-transformed pGI50): 2.38; GI50 (HL-60 [2]; NCI-60): 62.4 nM; Tryptophan fluorescence shift (purified human 5-LO): blue shift
